The text below walks through data of US20260325533A1, “CDK INHIBITOR COMPOUNDS” (ALEKSIA THERAPEUTICS, INC., priority 2023, published 2026).

Like-named read-outs stand apart in the source and are kept apart here.

Type in all cases: biochemical
One assay has as its target CDK2/CCNE1 (Homo sapiens, UniProt P24941). In words: CDK2 homogeneous time-resolved fluorescence (HTRF) kinase assay. The following applies: CDK2/CCNE. The procedure, abridged:
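3 nM CDK2/CCNE1 was preincubated with compound for 20 min at 23 °C in HEPES buffer (pH not stated), then reacted 60 min with 1 mM ATP and 50 nM ULight-4E-BP1 (Thr37/46) peptide. After EDTA stop, Eu-anti-phospho-4E-BP1 antibody (2 nM) was added for 60 min and TR-FRET read at 665 nm.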

The next assay concerns the target CDK1/CCNB1 (Homo sapiens, UniProt P06493). The assay is described as follows: CDK1 homogeneous time-resolved fluorescence (HTRF) kinase assay. The following applies: CDK1/CCNB. The procedure, abridged:
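High-ATP (1 mM) HTRF assay with 0.5 nM CDK1/cyclin B1 and 50 nM ULight-4E-BP1 (Thr37/46) substrate, 60 min at 23 °C after 20-min compound preincubation. IC50 values come from dose-response curves.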
A general note: TR-FRET usually uses a lanthanide donor and a delayed reading to cut background.

Another assay deals with CDK6/CCND1 (Homo sapiens, UniProt Q00534). In words: CDK6 homogeneous time-resolved fluorescence (HTRF) kinase assay. As to conditions: CDK6/CCND. The procedure, abridged: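 1 nM enzyme, 1 mM ATP, 50 nM ULight-4E-BP1 (Thr37/46) peptide, 1% DMSO; 20 min compound preincubation, 60 min reaction, 23 °C. EDTA stop, 2 nM Eu-anti-phospho-4E-BP1 antibody 60 min. TR-FRET 665 nm (or 665/615 ratio); IC50 from 11-point half-log titration, top 10 μM.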

In the next assay the target is CDK4/CCND3 (Homo sapiens, UniProt P11802). In words: CDK4 homogeneous time-resolved fluorescence (HTRF) kinase assay. The following applies: CDK4/CCND. The procedure, abridged: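 Inhibition of CDK4/CCND3 (1.5 nM) was measured at high ATP (1 mM) using 50 nM ULight-labelled 4E-BP1 Thr37/46 peptide; detection used 2 nM europium anti-phospho antibody after EDTA quench. IC50 values came from 11-point half-log titrations typically starting at 10 μM.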

The mark [1] stands for this setting: 25-250 nM, read-out: CDK2/CCNE IC50, 25-250 nM.
Where [2] appears, read: >250 nM, read-out: CDK1/CCNB IC50 >250 nM.
[3] abbreviates: >250 nM, 1 mM ATP, read-out: CDK6/CCND IC50, >250 nM.
Where [4] appears, read: >250 nM, read-out: CDK4/CCND IC50, >250 nM.
Where [5] appears, read: <25 nM, read-out: CDK2/CCNE IC50, <25 nM.
The mark [6] stands for this setting: 25-250 nM, read-out: CDK4/CCND IC50, 25-250 nM.
Setting [7] is: 25-250 nM marked x, read-out: CDK2/CCNE IC50 25-250 nM.
Where [8] appears, read: >250 nM marked x, read-out: CDK1/CCNB IC50 >250 nM.
The mark [9] stands for this setting: 25-250 nM marked x, read-out: CDK6/CCND IC50 25-250 nM.
Setting [10] is: 25-250 nM marked x, read-out: CDK4/CCND IC50 25-250 nM.
[11] abbreviates: <25 nM, read-out: CDK6/CCND IC50 <25 nM.
[12] abbreviates: <25 nM, read-out: CDK2/CCNE IC50 <25 nM.
[13] abbreviates: 25-250 nM marked x, read-out: CDK1/CCNB IC50 25-250 nM.
Setting [14] is: <25 nM, read-out: CDK4/CCND IC50 <25 nM.

Chain of CDK4/CCND3 (P11802 whole entry): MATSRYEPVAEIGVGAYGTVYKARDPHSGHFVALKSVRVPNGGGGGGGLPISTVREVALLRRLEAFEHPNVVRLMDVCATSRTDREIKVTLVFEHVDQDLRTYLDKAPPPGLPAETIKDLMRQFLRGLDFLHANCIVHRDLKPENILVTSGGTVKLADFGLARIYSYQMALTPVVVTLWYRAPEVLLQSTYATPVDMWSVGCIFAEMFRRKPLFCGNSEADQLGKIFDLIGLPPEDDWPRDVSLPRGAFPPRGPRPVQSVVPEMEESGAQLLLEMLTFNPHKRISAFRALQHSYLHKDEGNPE
Chain of CDK4/CCND3 (P30281 whole entry partner): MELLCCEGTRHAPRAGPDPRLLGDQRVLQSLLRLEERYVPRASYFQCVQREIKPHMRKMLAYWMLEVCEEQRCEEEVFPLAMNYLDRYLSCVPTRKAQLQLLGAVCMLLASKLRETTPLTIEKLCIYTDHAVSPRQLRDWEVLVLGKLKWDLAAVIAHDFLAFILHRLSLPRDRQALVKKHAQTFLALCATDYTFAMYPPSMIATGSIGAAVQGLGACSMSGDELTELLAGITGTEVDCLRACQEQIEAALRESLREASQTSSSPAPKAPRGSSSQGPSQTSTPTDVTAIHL
Chain of CDK1/CCNB1 (P06493 whole entry): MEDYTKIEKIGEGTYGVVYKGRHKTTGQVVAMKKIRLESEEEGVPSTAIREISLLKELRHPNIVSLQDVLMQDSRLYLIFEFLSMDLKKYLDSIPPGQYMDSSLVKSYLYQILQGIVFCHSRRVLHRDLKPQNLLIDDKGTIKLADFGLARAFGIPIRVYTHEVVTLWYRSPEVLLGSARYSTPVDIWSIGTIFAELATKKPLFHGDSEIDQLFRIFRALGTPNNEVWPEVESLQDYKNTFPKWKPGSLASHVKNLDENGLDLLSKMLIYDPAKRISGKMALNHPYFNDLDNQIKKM
Chain of CDK1/CCNB1 (P14635 whole entry partner): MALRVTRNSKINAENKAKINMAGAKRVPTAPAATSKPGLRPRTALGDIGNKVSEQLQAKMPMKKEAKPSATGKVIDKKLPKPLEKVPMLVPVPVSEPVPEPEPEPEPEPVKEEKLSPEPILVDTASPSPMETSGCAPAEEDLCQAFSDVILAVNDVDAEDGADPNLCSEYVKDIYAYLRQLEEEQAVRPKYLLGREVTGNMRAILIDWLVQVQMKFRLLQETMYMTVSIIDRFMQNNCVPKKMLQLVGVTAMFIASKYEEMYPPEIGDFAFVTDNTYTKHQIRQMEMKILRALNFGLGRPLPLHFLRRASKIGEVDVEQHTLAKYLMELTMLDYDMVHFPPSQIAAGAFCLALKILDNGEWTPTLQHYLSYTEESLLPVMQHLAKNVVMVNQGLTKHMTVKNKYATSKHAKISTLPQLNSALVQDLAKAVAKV
Chain of CDK6/CCND1 (Q00534 whole entry): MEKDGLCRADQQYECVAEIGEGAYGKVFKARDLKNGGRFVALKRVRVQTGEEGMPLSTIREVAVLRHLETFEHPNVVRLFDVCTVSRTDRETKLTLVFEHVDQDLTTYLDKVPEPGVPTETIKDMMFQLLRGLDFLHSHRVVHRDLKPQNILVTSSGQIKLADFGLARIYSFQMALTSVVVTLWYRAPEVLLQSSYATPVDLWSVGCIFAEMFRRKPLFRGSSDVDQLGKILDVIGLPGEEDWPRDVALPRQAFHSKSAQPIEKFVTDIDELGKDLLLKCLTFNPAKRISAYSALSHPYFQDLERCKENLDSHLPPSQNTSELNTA
Chain of CDK6/CCND1 (P24385 whole entry partner): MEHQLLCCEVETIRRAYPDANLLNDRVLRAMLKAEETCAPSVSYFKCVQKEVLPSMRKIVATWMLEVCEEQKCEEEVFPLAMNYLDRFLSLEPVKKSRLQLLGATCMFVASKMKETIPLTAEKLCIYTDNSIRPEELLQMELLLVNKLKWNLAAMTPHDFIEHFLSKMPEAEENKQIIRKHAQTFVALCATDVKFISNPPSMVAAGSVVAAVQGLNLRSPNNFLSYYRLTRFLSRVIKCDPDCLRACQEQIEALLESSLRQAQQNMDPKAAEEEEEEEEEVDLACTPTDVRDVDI

As for `Cc1c(-c2nccc3cnc(Nc4ccc(S(C)(=O)=O)c(N5CCN(C)CC5)c4)cc23)ccc2c1cnn2CC(C)(C)O` [Ex 931, 2-methyl-1-(4-methyl-5-(7-((3-(4-methylpiperazin-1-yl)-4-(methylsulfonyl)phenyl)amino)-2,6-naphthyridin-1-yl)-1H-indazol-1-yl)propan-2-ol], the IC50 on CDK2/CCNE1 (setting [1]) was 25 to 250 nM; at CDK1/CCNB1 (setting [2]), over 250 nM; at CDK6/CCND1 (setting [3]), over 250 nM; on CDK4/CCND3 (setting [4]), over 250 nM.
Consider `Cc1c(-c2nccc3cnc(Nc4ccc(=O)n(C)n4)cc23)ccc2c1cnn2CC(C)(C)O` [Ex 932, 6-((5-(1-(2-hydroxy-2-methylpropyl)-4-methyl-1H-indazol-5-yl)-2,6-naphthyridin-3-yl)amino)-2-methylpyridazin-3(2H)-one], for which the IC50 was under 25 nM on CDK2/CCNE1 (setting [5]), over 250 nM on CDK1/CCNB1 (setting [2]), over 250 nM on CDK6/CCND1 (setting [3]) and 25 to 250 nM on CDK4/CCND3 (setting [6]).
For `CN1CCN(S(=O)(=O)c2ccc(Nc3cc4c(C#Cc5ccc(C#N)cc5)nccc4cn3)cc2)CC1` [Ex 933, 4-((7-((4-((4-methylpiperazin-1-yl)sulfonyl)phenyl)amino)-2,6-naphthyridin-1-yl)ethynyl)benzonitrile], the IC50 on CDK2/CCNE1 (>250 nM, read-out: CDK2/CCNE IC50, >250 nM) is over 250 nM; at CDK1/CCNB1 (setting [2]), over 250 nM; on CDK6/CCND1 (setting [3]) it was over 250 nM; on CDK4/CCND3 (setting [4]), over 250 nM.
On to `N#Cc1ccc(C#Cc2nccc3cnc(Nc4ccc(S(=O)(=O)N5CCOCC5)cc4)cc23)cc1` [Ex 934, 4-((7-((4-(morpholinosulfonyl)phenyl)amino)-2,6-naphthyridin-1-yl)ethynyl)benzonitrile], for which the IC50 was 25 to 250 nM at CDK2/CCNE1 (setting [1]), over 250 nM at CDK1/CCNB1 (setting [2]), over 250 nM on CDK6/CCND1 (setting [3]) and over 250 nM at CDK4/CCND3 (setting [4]).
As for `N#Cc1ccc(C#Cc2nccc3cnc(Nc4ccc(S(=O)(=O)Nc5ccccn5)cc4)cc23)cc1` [Ex 935, 4-((5-((4-cyanophenyl)ethynyl)-2,6-naphthyridin-3-yl)amino)-N-(pyridin-2-yl)benzenesulfonamide], the IC50 at CDK2/CCNE1 (setting [1]) was 25 to 250 nM; on CDK1/CCNB1 (setting [2]) it was over 250 nM; on CDK6/CCND1 (setting [3]), over 250 nM; at CDK4/CCND3 (setting [4]) it was over 250 nM.
In the case of `Cc1cc(C)nc(NS(=O)(=O)c2ccc(Nc3cc4c(C#Cc5ccc(C#N)cc5)nccc4cn3)cc2)n1` [Ex 936, 4-((5-((4-cyanophenyl)ethynyl)-2,6-naphthyridin-3-yl)amino)-N-(4,6-dimethylpyrimidin-2-yl)benzenesulfonamide], the IC50 on CDK2/CCNE1 (setting [5]) is under 25 nM; on CDK1/CCNB1 (setting [2]), over 250 nM; on CDK6/CCND1 (setting [3]), over 250 nM; at CDK4/CCND3 (setting [4]), over 250 nM.
With `Cc1c(-c2nccc3cnc(Nc4ccc(C(=O)Nc5ccccc5)cc4)cc23)ccc2c1cnn2CC(C)(C)O` [Ex 937, 4-((5-(1-(2-hydroxy-2-methylpropyl)-4-methyl-1H-indazol-5-yl)-2,6-naphthyridin-3-yl)amino)-N-phenylbenzamide], the IC50 was under 25 nM on CDK2/CCNE1 (setting [5]), over 250 nM at CDK1/CCNB1 (setting [2]), over 250 nM at CDK6/CCND1 (setting [3]) and over 250 nM at CDK4/CCND3 (setting [4]).
With `Cc1c(-c2nccc3cnc(Nc4ccc(NS(C)(=O)=O)cc4)cc23)ccc2c1cnn2CC(C)(C)O` [Ex 938, N-(4-((5-(1-(2-hydroxy-2-methylpropyl)-4-methyl-1H-indazol-5-yl)-2,6-naphthyridin-3-yl)amino)phenyl)methanesulfonamide], the IC50 on CDK2/CCNE1 (setting [5]) was under 25 nM; at CDK1/CCNB1 (25-250 nM, read-out: CDK1/CCNB IC50, 25-250 nM) it was 25 to 250 nM; on CDK6/CCND1 (25-250 nM, 1 mM ATP, read-out: CDK6/CCND IC50, 25-250 nM) it was 25 to 250 nM; on CDK4/CCND3 (setting [6]), 25 to 250 nM.
`Cc1c(-c2nccc3cnc(Nc4ccnc(OCc5ccccc5)c4)cc23)ccc2c1cnn2CC(C)(C)O` [Ex 939, 1-(5-(7-((2-(benzyloxy)pyridin-4-yl)amino)-2,6-naphthyridin-1-yl)-4-methyl-1H-indazol-1-yl)-2-methylpropan-2-ol]: the IC50 at CDK2/CCNE1 (setting [1]) was 25 to 250 nM; on CDK1/CCNB1 (setting [2]), over 250 nM; at CDK6/CCND1 (setting [3]), over 250 nM; at CDK4/CCND3 (setting [4]) it was over 250 nM.
Take `CS(=O)(=O)Nc1ccc(Nc2cc3c(C#Cc4ccc(C#N)cc4)nccc3cn2)cc1` [Ex 940, N-(4-((5-((4-cyanophenyl)ethynyl)-2,6-naphthyridin-3-yl)amino)phenyl)methanesulfonamide]: the IC50 on CDK2/CCNE1 (setting [1]) was 25 to 250 nM; at CDK1/CCNB1 (setting [2]) it was over 250 nM; at CDK6/CCND1 (setting [3]), over 250 nM; on CDK4/CCND3 (setting [4]) it was over 250 nM.
Consider `COc1ccc(C#Cc2nccc3cnc(Nc4ccc(S(C)(=O)=O)cc4)cc23)cc1` [Ex 941, 5-((4-methoxyphenyl)ethynyl)-N-(4-(methylsulfonyl)phenyl)-2,6-naphthyridin-3-amine], for which the IC50 at CDK2/CCNE1 (setting [1]) is 25 to 250 nM; on CDK1/CCNB1 (setting [2]), over 250 nM; at CDK6/CCND1 (setting [3]), over 250 nM; on CDK4/CCND3 (setting [4]), over 250 nM.
For `CS(=O)(=O)c1cccc(Nc2cc3c(C#Cc4ccc(C#N)cc4)nccc3cn2)c1` [Ex 942, 4-((7-((3-(methylsulfonyl)phenyl)amino)-2,6-naphthyridin-1-yl)ethynyl)benzonitrile], the IC50 on CDK2/CCNE1 (setting [1]) was 25 to 250 nM; at CDK1/CCNB1 (setting [2]), over 250 nM; on CDK6/CCND1 (setting [3]) it was over 250 nM; at CDK4/CCND3 (setting [4]) it was over 250 nM.
Regarding `Cn1cc(Nc2cc3c(C#Cc4ccc(C#N)cc4)nccc3cn2)cn1` [Ex 943, 4-((7-((1-methyl-1H-pyrazol-4-yl)amino)-2,6-naphthyridin-1-yl)ethynyl)benzonitrile], the IC50 is 25 to 250 nM at CDK2/CCNE1 (setting [1]), over 250 nM at CDK1/CCNB1 (setting [2]), over 250 nM on CDK6/CCND1 (setting [3]) and over 250 nM at CDK4/CCND3 (setting [4]).
Regarding `CS(=O)(=O)N1CCC(Nc2cc3c(N4CCC(O)CC4)nccc3cn2)CC1` [Example 1, 1-(7-((1-(methylsulfonyl)piperidin-4-yl)amino)-2,6-naphthyridin-1-yl)piperidin-4-ol], the IC50 on CDK2/CCNE1 (setting [7]) was 25 to 250 nM; at CDK1/CCNB1 (setting [8]) it was over 250 nM; on CDK6/CCND1 (setting [9]) it was 25 to 250 nM; on CDK4/CCND3 (setting [10]) it was 25 to 250 nM.
As for `CS(=O)(=O)N1CCC(Nc2cc3c(N4CCCC4)nccc3cn2)CC1` [Example 2, N-(1-(methylsulfonyl)piperidin-4-yl)-5-(pyrrolidin-1-yl)-2,6-naphthyridin-3-amine], the IC50 was 25 to 250 nM on CDK2/CCNE1 (setting [7]), over 250 nM at CDK1/CCNB1 (setting [8]), under 25 nM at CDK6/CCND1 (setting [11]) and 25 to 250 nM at CDK4/CCND3 (setting [10]).
Turning to `C=CS(=O)(=O)N1CCC(Nc2cc3c(N4CCCCC4)nccc3cn2)CC1` [Example 3, 5-(piperidin-1-yl)-N-(1-(vinylsulfonyl)piperidin-4-yl)-2,6-naphthyridin-3-amine], the IC50 was under 25 nM on CDK2/CCNE1 (setting [12]), 25 to 250 nM on CDK1/CCNB1 (setting [13]), 25 to 250 nM on CDK6/CCND1 (setting [9]) and 25 to 250 nM at CDK4/CCND3 (setting [10]).
Take `CC(C)c1nccc2cnc(NC3CCN(S(C)(=O)=O)CC3)cc12` [Example 6, 5-isopropyl-N-(1-(methylsulfonyl)piperidin-4-yl)-2,6-naphthyridin-3-amine]: the IC50 was under 25 nM at CDK2/CCNE1 (setting [12]), 25 to 250 nM on CDK1/CCNB1 (setting [13]), 25 to 250 nM on CDK6/CCND1 (setting [9]) and under 25 nM at CDK4/CCND3 (setting [14]).
For the compound `CC#Cc1nccc2cnc(Nc3ccc(S(C)(=O)=O)cc3)cc12` [Example 7, N-(4-(methylsulfonyl)phenyl)-5-(prop-1-yn-1-yl)-2,6-naphthyridin-3-amine], the IC50 is under 25 nM at CDK2/CCNE1 (setting [12]); over 250 nM at CDK1/CCNB1 (setting [8]); over 250 nM on CDK6/CCND1 (>250 nM marked x, read-out: CDK6/CCND IC50 >250 nM); over 250 nM on CDK4/CCND3 (>250 nM marked x, read-out: CDK4/CCND IC50 >250 nM).
For the compound `CS(=O)(=O)N1CCC(Nc2cc3c(OCc4ccccc4)nccc3cn2)CC1` [Example 11, 5-(benzyloxy)-N-(1-(methylsulfonyl)piperidin-4-yl)-2,6-naphthyridin-3-amine], the IC50 on CDK2/CCNE1 (setting [7]) is 25 to 250 nM; at CDK1/CCNB1 (setting [13]), 25 to 250 nM; at CDK6/CCND1 (setting [11]) it was under 25 nM; at CDK4/CCND3 (setting [14]), under 25 nM.
